Our source for the EC50 values is patent US8299086B2, “Pyrimidine derivatives” (Actelion Pharmaceuticals Ltd., priority 2007, dated 2012).

recombinant human S1P1 receptor, sequence (P21453 whole entry): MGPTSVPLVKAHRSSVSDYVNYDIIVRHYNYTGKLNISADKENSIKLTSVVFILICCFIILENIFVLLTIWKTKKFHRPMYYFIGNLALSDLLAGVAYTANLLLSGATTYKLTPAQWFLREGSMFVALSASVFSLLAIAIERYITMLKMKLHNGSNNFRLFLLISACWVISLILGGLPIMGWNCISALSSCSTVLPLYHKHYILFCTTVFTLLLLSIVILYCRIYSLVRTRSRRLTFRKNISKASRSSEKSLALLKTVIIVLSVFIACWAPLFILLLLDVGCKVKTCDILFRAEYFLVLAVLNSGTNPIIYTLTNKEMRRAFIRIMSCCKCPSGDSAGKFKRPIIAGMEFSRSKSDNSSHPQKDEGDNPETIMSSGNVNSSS

For one assay, the target named is recombinant human S1P1 receptor (Homo sapiens, UniProt P21453). Description: GTPγS assay to determine EC50 values. Type of assay: biochemical. The note with it: 35S-GTPγS binding, membranes of CHO cells expressing recombinant human S1P1 receptor. How it is done:
GTPγS assay to determine EC50 values
GTPγS binding assays are performed in 96 well microtiter plates (Nunc, 442587) in a final volume of 200 μl, using membrane preparations of CHO cells expressing recombinant human S1P1 receptor. Assay conditions are 20 mM Hepes (Fluka, 54461), 100 mM NaCl (Fluka, 71378), 5 mM MgCl2 (Fluka, 63064), 0.1% BSA (Calbiochem, 126609), 1 μM GDP (Sigma, G-7127), 2.5% DMSO (Fluka, 41644), […] ^35S-GTPγS (Amersham Biosciences, SJ1320). The pH is 7.4. Test compounds are dissolved and diluted in 100% DMSO and pre-incubated at room temperature for 30 min in 150 μl of the above assay buffer, in the absence of ^35S-GTPγS. After addition of 50 μl of ^35S-GTPγS, the assay is incubated for 1 h at rt. The assay is terminated by transfer of the reaction mixture to a Multiscreen plate (Millipore, MAHFC1H60) using a cell harvester from Packard Biosciences, and the plates are washed with ice-cold 10 mM Na2HPO4/NaH2PO4 (70%/30%), dried, sealed at the bottom and, after addition of 25 μl MicroScint20 (Packard Biosciences, order#6013621), sealed on the top. Membrane-bound ^35S-GTPγS is measured with a TopCount from Packard Biosciences.
EC50 is the concentration of agonist inducing 50% of the maximal specific ^35S-GTPγS binding. Specific binding is determined by subtracting non-specific binding from maximal binding. Maximal binding is the amount of cpm bound to the Multiscreen plate in the presence of 10 μM of S1P. Non-specific binding is the amount of binding in the absence of an agonist in the assay.
On the technique in general: Binding of GTPγS marks nucleotide exchange on a G protein.
In general, EC50 refers to the concentration that produces a half-maximal response. As for `CCN(CC)c1nc(C)cc(-c2nc(-c3ccc(CC(=O)N4CCC[C@H]4C(=O)O)cc3)no2)n1` [Example 132], the EC50 is over 10000 nM.

Still in this assay, the particulars now being: 35S-GTPγS binding, membranes of CHO cells expressing recombinant human S1P1 receptor, pH 7.4.
In the case of `CCc1cc(-c2noc(-c3cc(C)nc(NC(C)C)n3)n2)cc(C)c1CCC(=O)NCC(O)CO` (stereo not drawn) [Example 140], the EC50 was 12.6 nM.
Still for that read-out and setting: in the case of `COc1cc(-c2noc(-c3cc(C)nc(NC(C)C)n3)n2)cc(C)c1OC[C@@H](O)CO` [Example 78, (S)-3-{4-[5-(2-isopropylamino-6-methyl-pyrimidin-4-yl)-[1,2,4]oxadiazol-3-yl]-2-methoxy-6-methyl-phenoxy}-propane-1,2-diol] it was 5.8 nM; in that of `CCc1cc(-c2noc(-c3cc(C)nc(NC(C)C)n3)n2)cc(C)c1CCC(=O)NCCC(=O)O` [Example 134], 2 nM; in that of `CCNc1nc(C)cc(-c2nc(-c3cc(C)c(OCC(O)CNC(=O)CO)c(C)c3)no2)n1` (racemic) [Example 4, rac-N-(3-{4-[5-(2-Ethylamino-6-methyl-pyrimidin-4-yl)-[1,2,4]oxadiazol-3-yl]-2,6-dimethyl-phenoxy}-2-hydroxy-propyl)-2-hydroxy-acetamide], 0.46 nM.
Same read-out and setting: as for `CCc1cc(-c2noc(-c3cc(C)nc(N(CC)CC)n3)n2)cc(C)c1OC[C@@H](O)CNCCC(=O)O` [Example 126, 3-((S)-3-{4-[5-(2-diethylamino-6-methyl-pyrimidin-4-yl)-[1,2,4]oxadiazol-3-yl]-2-ethyl-6-methyl-phenoxy}-2-hydroxy-propylamino)-propionic acid], the figure is 1.4 nM.
Same read-out and setting: in the case of `CCCOc1nc(C)cc(-c2nc(-c3cc(C)c(OCC(O)CNC(=O)CO)c(C)c3)no2)n1` (racemic) [Example 14, rac-N-(3-{4-[5-(6-Methyl-2-propoxy-pyrimidin-4-yl)-[1,2,4]oxadiazol-3-yl]-2,6-dimethyl-phenoxy}-2-hydroxy-propyl)-2-hydroxy-acetamide] it was 26 nM.
`Cc1cc(-c2nc(-c3cc(C)c(OC[C@@H](O)CNC(=O)CO)c(Cl)c3)no2)nc(OC(C)C)n1` [Example 54, N—((S)-3-{2-chloro-4-[5-(2-isopropoxy-6-methyl-pyrimidin-4-yl)-[1,2,4]oxadiazol-3-yl]-6-methyl-phenoxy}-2-hydroxy-propyl)-2-hydroxy-acetamide]: the EC50 amounted to 1 nM.
Still for that read-out and setting: in the case of `CCOc1nc(CC)cc(-c2nc(-c3cc(C)c(OC[C@@H](O)CNC(=O)CO)c(CC)c3)no2)n1` [Example 41, N—((S)-3-{4-[5-(2-ethoxy-6-ethyl-pyrimidin-4-yl)-[1,2,4]oxadiazol-3-yl]-2-ethyl-6-methyl-phenoxy}-2-hydroxy-propyl)-2-hydroxy-acetamide] it was 4.5 nM; in that of `Cc1cc(-c2nc(-c3ccc(CC(O)CO)cc3)no2)nc(NC(C)C)n1` (racemic) [Example 149, rac-3-{4-[5-(2-Isopropylamino-6-methyl-pyrimidin-4-yl)-[1,2,4]oxadiazol-3-yl]-phenyl}-propane-1,2-diol], 25 nM.
Still for that read-out and setting: in the case of `CCc1cc(-c2noc(-c3cc(C)nc(N(CC)CC)n3)n2)cc(C)c1OC[C@@H](O)CNS(=O)(=O)CC` [Example 117] it was 22.3 nM.
Same read-out and setting: as for `CCc1cc(-c2noc(-c3cc(CC(C)C)nc(OC)n3)n2)cc(C)c1OC[C@@H](O)CNC(=O)CO` [Example 43, N—((S)-3-{2-ethyl-4-[5-(6-isobutyl-2-methoxy-pyrimidin-4-yl)-[1,2,4]oxadiazol-3-yl]-6-methyl-phenoxy}-2-hydroxy-propyl)-2-hydroxy-acetamide], the figure is 0.97 nM.
With `Cc1cc(-c2nc(-c3cc(C)c(OC[C@@H](O)CNC(=O)CO)c(C)c3)no2)nc(OCC(C)C)n1` [Example 46], the EC50 came out at 3.7 nM.
As to `CCN(CC)c1nc(C)cc(-c2nc(-c3ccc(CCNS(C)(=O)=O)cc3)no2)n1` [Example 128, N-(2-{4-[5-(2-Diethylamino-6-methyl-pyrimidin-4-yl)-[1,2,4]oxadiazol-3-yl]-phenyl}-ethyl)-methanesulfonamide], the EC50 was 74.4 nM.
Still for that read-out and setting: as for `CCc1cc(-c2nnc(-c3cc(C)nc(OC(C)C)n3)o2)cc(C)c1OC[C@@H](O)CNC(=O)CO` [Example 89], the figure is 39.4 nM.
